In PubChem BioAssay (NCI):
Where “and” joins values, the source holds several entries; their conditions need not be identical. Identical values can stand only once.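 Briefly, cells in 96-well plates were exposed to five compound concentrations for 48 h, and endpoints were estimated by linear interpolation. TGI denotes the concentration required for complete inhibition of growth.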

What was measured:
Assay in all cases: NCI anticancer screen, dose series, 48 h
HOP-62 NSCLC = system: HOP-62 NSCLC
SK-MEL-2 melanoma = system: SK-MEL-2 melanoma
MOLT-4 leukemia = system: MOLT-4 leukemia
TK-10 renal = system: TK-10 renal
OVCAR-8 ovarian = system: OVCAR-8 ovarian
A549 NSCLC = system: A549 NSCLC
SNB-75 CNS = system: SNB-75 CNS
OVCAR-4 ovarian = system: OVCAR-4 ovarian
PC-3 prostate = system: PC-3 prostate
A498 renal = system: A498 renal

## CC(=O)Nc1ccc(CNc2cc(=O)[nH]c(=O)[nH]2)cc1
HOP-62 NSCLC
  TGI: > 100 µM
SK-MEL-2 melanoma
  TGI: > 100 µM
MOLT-4 leukemia
  TGI: > 100 µM
TK-10 renal
  TGI: > 100 µM
OVCAR-8 ovarian
  TGI: > 100 µM
A549 NSCLC
  TGI: > 100 µM
SNB-75 CNS
  TGI: > 100 µM
OVCAR-4 ovarian
  TGI: > 100 µM
PC-3 prostate
  TGI: > 100 µM

## Cc1c(-c2cc3n(n2)C(c2cccs2)C(C#N)=C(c2ccccc2)N3)c(=O)n(-c2ccccc2)n1C (stereo not given)
HOP-62 NSCLC
  TGI: > 100 µM
SK-MEL-2 melanoma
  TGI: > 100 µM
A498 renal
  TGI: > 100 µM
MOLT-4 leukemia
  TGI: > 100 µM
OVCAR-8 ovarian
  TGI: > 100 µM
A549 NSCLC
  TGI: > 100 µM
SNB-75 CNS
  TGI: > 100 µM
OVCAR-4 ovarian
  TGI: > 100 µM

## O=c1[nH]c2ccc(CC(=S)N3CCOCC3)cc2s1
HOP-62 NSCLC
  TGI: > 100 µM
SK-MEL-2 melanoma
  TGI: > 100 µM
A498 renal
  TGI: > 100 µM
MOLT-4 leukemia
  TGI: > 100 µM
TK-10 renal
  TGI: > 100 µM
OVCAR-8 ovarian
  TGI: > 100 µM
PC-3 prostate
  TGI: > 100 µM

## CCOP(=O)(/C=C\n1cnc2c(=O)n(C(C)=O)c(N)nc21)OCC
HOP-62 NSCLC
  TGI: > 100 µM
A498 renal
  TGI: > 100 µM
MOLT-4 leukemia
  TGI: > 100 µM
TK-10 renal
  TGI: > 100 µM
OVCAR-8 ovarian
  TGI: > 100 µM
A549 NSCLC
  TGI: > 100 µM
SNB-75 CNS
  TGI: > 100 µM
OVCAR-4 ovarian
  TGI: > 100 µM
PC-3 prostate
  TGI: > 100 µM

## O=C(c1cc(Cl)cc(Cl)c1)N(C(=S)OC12CC3CC(CC(C3)C1)C2)c1ccccc1
HOP-62 NSCLC
  TGI: > 100 µM
SK-MEL-2 melanoma
  TGI: 41.6 µM
A498 renal
  TGI: > 100 µM
TK-10 renal
  TGI: > 100 µM
OVCAR-8 ovarian
  TGI: > 100 µM
A549 NSCLC
  TGI: > 100 µM
SNB-75 CNS
  TGI: > 100 µM
OVCAR-4 ovarian
  TGI: > 100 µM
PC-3 prostate
  TGI: > 100 µM

## N#CCC(=O)Nn1c(CC#N)nnc1Cc1ccccc1
HOP-62 NSCLC
  TGI: > 100 µM
SK-MEL-2 melanoma
  TGI: > 100 µM
MOLT-4 leukemia
  TGI: > 100 µM
TK-10 renal
  TGI: > 100 µM
OVCAR-8 ovarian
  TGI: > 100 µM
A549 NSCLC
  TGI: > 100 µM
SNB-75 CNS
  TGI: > 100 µM
PC-3 prostate
  TGI: > 100 µM

## COc1cc([C@@H]2c3cc4c(cc3[C@@H](NCCNCCO)[C@H]3COC(=O)[C@H]23)OCO4)cc(OC)c1O
HOP-62 NSCLC
  TGI: 5.18 µM and 6.52 µM
SK-MEL-2 melanoma
  TGI: > 26.9 µM and 4.89 µM
A498 renal
  TGI: 19.9 µM
TK-10 renal
  TGI: 33.8 µM and 39.3 µM
OVCAR-8 ovarian
  TGI: > 22.4 µM and 20.8 µM
A549 NSCLC
  TGI: > 100 µM
SNB-75 CNS
  TGI: 8.64 µM and 5.94 µM
OVCAR-4 ovarian
  TGI: 47.4 µM and > 84.8 µM
PC-3 prostate
  TGI: > 100 µM

## Cc1ccc2c(c1)NC(=O)CCSSCCC(=O)N2
HOP-62 NSCLC
  TGI: > 100 µM
SK-MEL-2 melanoma
  TGI: > 100 µM
A498 renal
  TGI: > 100 µM
MOLT-4 leukemia
  TGI: > 100 µM
TK-10 renal
  TGI: > 100 µM
OVCAR-8 ovarian
  TGI: > 100 µM
A549 NSCLC
  TGI: > 100 µM
OVCAR-4 ovarian
  TGI: > 100 µM
PC-3 prostate
  TGI: > 100 µM

## CC(=O)O[C@H]1C[C@]2(C)C(CCC3O[C@@]32C)[C@@]2(CC(c3ccoc3)OC2O)[C@@H]1C (stereo not given in full)
SK-MEL-2 melanoma
  TGI: > 100 µM
A498 renal
  TGI: > 100 µM
MOLT-4 leukemia
  TGI: 93 µM
TK-10 renal
  TGI: > 100 µM
OVCAR-8 ovarian
  TGI: > 100 µM
A549 NSCLC
  TGI: > 100 µM
SNB-75 CNS
  TGI: > 100 µM
OVCAR-4 ovarian
  TGI: > 100 µM
PC-3 prostate
  TGI: > 100 µM

## O=P(O)(O)C(CSc1ccccc1)P(=O)(O)O
HOP-62 NSCLC
  TGI: > 100 µM
SK-MEL-2 melanoma
  TGI: > 100 µM
A498 renal
  TGI: > 100 µM
MOLT-4 leukemia
  TGI: > 100 µM
OVCAR-8 ovarian
  TGI: > 100 µM
A549 NSCLC
  TGI: > 100 µM
SNB-75 CNS
  TGI: > 100 µM
OVCAR-4 ovarian
  TGI: > 100 µM

## COP(C)(=O)/C(Cc1ccccc1)=N\O (stereo not given)
HOP-62 NSCLC
  TGI: > 100 µM
SK-MEL-2 melanoma
  TGI: > 100 µM
MOLT-4 leukemia
  TGI: > 100 µM
TK-10 renal
  TGI: > 100 µM
OVCAR-8 ovarian
  TGI: > 100 µM
A549 NSCLC
  TGI: > 100 µM
SNB-75 CNS
  TGI: > 100 µM
OVCAR-4 ovarian
  TGI: > 100 µM
PC-3 prostate
  TGI: > 100 µM

## CC[C@@]1(O)C(=O)OCc2c1cc1n(c2=O)Cc2c-1nc1ccccc1c2CC[Si](C)(C)C
HOP-62 NSCLC
  TGI: 0.458 µM
SK-MEL-2 melanoma
  TGI: 0.484 µM
A498 renal
  TGI: 0.315 µM
OVCAR-8 ovarian
  TGI: > 100 µM
A549 NSCLC
  TGI: 7.61 µM
PC-3 prostate
  TGI: > 56.9 µM
